Common to all, as to format: cell-based
In assay [1] the target is T1, human muscarinic M3 receptor (Homo sapiens, UniProt P20309).
T1 construct: expressed in transfected cells
Nature of the assay: Alphascreen Surefire phospho-ERK1/2 functional assay, M3. The conditions noted are these: for Emax: CHO cells stably expressing human M3, read-out: % Emax cf. ACh, M3. How it is done:
(§1) ERK1/2 phosphorylation is a downstream consequence of both Gq/11 and Gi/o protein coupled receptor activation, making it highly suitable for the assessment of M1, M3 (Gq/11 coupled) and M2, M4 receptors (Gi/o coupled), rather than using different assay formats for different receptor subtypes. CHO cells stably expressing the human muscarinic M1, M2, M3 or M4 receptor were plated (25K/well) onto 96-well tissue culture plates in MEM-alpha+10% dialysed FBS. Once adhered, cells were serum-starved overnight. Agonist stimulation was performed by the addition of 5 μL agonist to the cells for 5 min (37° C.). Media was removed and 50 μL of lysis buffer added.

Assay [2] has as its target T2, human muscarinic M1 receptor (Homo sapiens, UniProt P11229).
T2 construct: expressed in transfected cells
T2 sequence (P11229 1-460): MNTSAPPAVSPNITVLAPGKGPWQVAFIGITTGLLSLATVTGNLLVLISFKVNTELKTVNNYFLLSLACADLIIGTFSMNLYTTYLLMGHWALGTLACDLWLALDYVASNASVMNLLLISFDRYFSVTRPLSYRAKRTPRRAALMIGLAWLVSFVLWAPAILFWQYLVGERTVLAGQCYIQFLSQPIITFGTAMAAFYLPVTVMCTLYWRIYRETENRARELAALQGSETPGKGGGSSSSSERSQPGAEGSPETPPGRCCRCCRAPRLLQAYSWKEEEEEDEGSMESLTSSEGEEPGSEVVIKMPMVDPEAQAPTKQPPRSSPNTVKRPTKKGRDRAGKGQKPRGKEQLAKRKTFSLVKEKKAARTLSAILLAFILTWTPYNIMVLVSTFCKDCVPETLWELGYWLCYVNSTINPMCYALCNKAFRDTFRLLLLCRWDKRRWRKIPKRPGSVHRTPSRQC
Nature of the assay: Alphascreen Surefire phospho-ERK1/2 functional assay, M1. The conditions noted are these: CHO cells stably expressing human M1, phospho-ERK1/2. How it is done: as §1
On the technique in general: Bead proximity is the source of the signal in Alpha formats.

Assay [3] has as its target T3, human muscarinic M2 receptor (Homo sapiens, UniProt P08172).
T3 construct: expressed in transfected cells
T3 sequence (P08172 1-466): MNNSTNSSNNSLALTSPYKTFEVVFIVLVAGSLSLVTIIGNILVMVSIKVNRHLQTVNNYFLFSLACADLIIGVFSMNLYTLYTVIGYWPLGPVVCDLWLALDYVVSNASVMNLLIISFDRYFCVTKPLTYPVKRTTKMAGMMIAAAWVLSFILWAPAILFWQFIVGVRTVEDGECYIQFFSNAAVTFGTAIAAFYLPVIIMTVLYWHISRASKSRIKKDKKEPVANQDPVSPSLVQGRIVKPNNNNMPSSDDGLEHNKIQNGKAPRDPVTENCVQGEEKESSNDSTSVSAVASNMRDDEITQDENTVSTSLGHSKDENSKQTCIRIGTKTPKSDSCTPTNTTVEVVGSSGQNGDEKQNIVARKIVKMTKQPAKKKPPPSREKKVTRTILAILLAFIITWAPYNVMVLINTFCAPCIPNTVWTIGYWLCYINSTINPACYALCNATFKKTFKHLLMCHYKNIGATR
The experiment in a line: Alphascreen Surefire phospho-ERK1/2 functional assay, M2. As to the method:
as §1

Assay [4] deals with T4, human muscarinic M4 receptor (Homo sapiens, UniProt P08173).
T4 construct: expressed in transfected cells
T4 sequence (P08173 1-479): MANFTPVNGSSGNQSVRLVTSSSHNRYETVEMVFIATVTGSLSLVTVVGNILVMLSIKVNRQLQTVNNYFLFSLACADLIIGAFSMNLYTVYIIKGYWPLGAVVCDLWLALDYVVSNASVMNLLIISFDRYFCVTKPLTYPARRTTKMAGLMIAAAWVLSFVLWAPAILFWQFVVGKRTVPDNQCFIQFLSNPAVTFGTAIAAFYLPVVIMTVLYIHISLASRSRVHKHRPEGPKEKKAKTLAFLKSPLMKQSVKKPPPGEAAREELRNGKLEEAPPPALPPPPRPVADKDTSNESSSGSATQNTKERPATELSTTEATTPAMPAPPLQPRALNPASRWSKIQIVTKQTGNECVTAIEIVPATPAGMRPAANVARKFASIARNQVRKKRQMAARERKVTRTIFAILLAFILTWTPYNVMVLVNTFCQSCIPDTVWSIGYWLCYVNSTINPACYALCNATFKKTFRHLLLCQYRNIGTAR
The experiment in a line: Alphascreen Surefire phospho-ERK1/2 functional assay, M4. The conditions noted are these: for Emax: CHO cells stably expressing human M4, read-out: % Emax cf. ACh, M4. As to the method:
as §1

Where only a bound is given, the exact number is not on record here.

T1 sequence (P20309 whole entry): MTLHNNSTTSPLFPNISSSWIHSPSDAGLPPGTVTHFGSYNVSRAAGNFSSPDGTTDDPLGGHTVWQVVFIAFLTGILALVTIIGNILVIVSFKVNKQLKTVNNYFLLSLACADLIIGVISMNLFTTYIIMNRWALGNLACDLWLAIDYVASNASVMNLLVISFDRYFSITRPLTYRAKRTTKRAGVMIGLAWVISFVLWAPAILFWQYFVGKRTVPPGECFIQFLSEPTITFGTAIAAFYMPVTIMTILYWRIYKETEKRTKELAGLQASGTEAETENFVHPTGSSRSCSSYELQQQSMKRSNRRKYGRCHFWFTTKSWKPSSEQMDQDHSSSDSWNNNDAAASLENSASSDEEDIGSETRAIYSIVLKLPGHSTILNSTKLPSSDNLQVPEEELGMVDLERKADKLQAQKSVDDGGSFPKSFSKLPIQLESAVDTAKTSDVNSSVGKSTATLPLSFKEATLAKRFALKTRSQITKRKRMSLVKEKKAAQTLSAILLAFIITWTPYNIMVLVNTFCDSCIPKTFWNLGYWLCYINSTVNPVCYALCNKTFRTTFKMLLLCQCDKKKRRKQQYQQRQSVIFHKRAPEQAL

By Emax is commonly meant the greatest response seen or fitted, relative to the assay's reference. Take `CC(C)(C)NC(=O)C1CCN([C@H]2C[C@H]3CC[C@@H](C2)N3c2nc(C(F)(F)F)no2)CC1.Cl` [Example 1-1, N-(tert-butyl)-1-((1R,3r,5S)-8-(3-(trifluoromethyl)-1,2,4-oxadiazol-5-yl)-8-azabicyclo[3.2.1]octan-3-yl)piperidine-4-carboxamide hydrochloride]: the Emax in assay [1] worked out at 3%; in assay [2] (read-out: % Emax cf. ACh, M1), 92%; in assay [3] (CHO cells stably expressing human M2, read-out: % Emax cf. ACh, M2) it was 7%; in assay [4] it was 32%. Further, the EC50 was greater than 20 µM in assay [1] (CHO cells stably expressing human M3, read-out: pEC50 M3 (converted)); greater than 20 µM in assay [3] (CHO cells stably expressing human M2, read-out: pEC50 M2 (converted)); 120 nM in assay [4] (CHO cells stably expressing human M4, read-out: pEC50 M4 (converted)). Also, the “pEC50 M1” value in assay [2] is given as 7.17.
For `CC(=O)OCC[N+](C)(C)C` [Acetylcholine, reference compound], the Emax amounted to 102% in assay [1] and 108% in assay [4].

The record behind these values is patent US11999745B2, “Pharmaceutical compounds” (Heptares Therapeutics Limited, priority 2020, dated 2024).
